Reference: publication PMC10915964, “Identifying ligands for the PHD1 finger of KDM5A through high-throughput screening†” (RSC Chemical Biology, 2023)
Where no end group is shown, it is not given here. 5‑FAM = 5-carboxyfluorescein

What was measured:
[1] = target: T1, GST-PHD1 (PHD1 finger of KDM5A) (Homo sapiens, UniProt P29375); test: Competitive-binding fluorescence polarization (FP) assay, displacement of 5-FAM H3K4me0 10-mer from GST-PHD1; details: for %I at 1 mM / inhibition at 1000 µM: 1 mM compound, quadruplicate (n = 1 for R1 = OBn; n = 2 for R1 = Me); for inhibition at 1000 µM: read-out: %I at 1 mM; for IC50: HTS assay conditions, read-out: approximate IC50
T1 construct: GST-PHD1(S287-E344); made in house; host or cells: E. coli BL21 (DE3), pET41a
T1 sequence (P29375 287-344): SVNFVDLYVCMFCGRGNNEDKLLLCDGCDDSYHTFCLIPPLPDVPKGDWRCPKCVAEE
Text: Fluorescence polarization (FP) has been widely used as a biophysical method to detect and quantify disruptions in protein–protein and protein–peptide interactions.[33,34] It served as the primary assay in the high-throughput screening (HTS) campaign to identify ligands for the PHD1 finger (Fig. 1b). The FP assay includes a GST-labeled […] construct and its H3K4me0 10-mer peptide substrate (Fig. 1c and d).[21,22] […]
Fig. 2 Dose-dependent inhibition of GST-PHD1 − H3 tail interaction by screen hits obtained from HTS of the NCI collection. […] DMSO is used as the negative (−) control (0% inhibition).
Fluorescence polarization high-throughput screening
To test the activity of purified GST-PHD1(S287-E344), direct-binding and competitive-binding fluorescence polarization (FP) were done, as previously described.3,4 For screening, GST-PHD1(S287-E344) was diluted in buffer (50 mM HEPES, pH 7.5, 50 mM KCl, 0.01% Tween-20, 1 mM TCEP) with 20 nM 5-carboxyfluorescein-labeled H3 10-mer peptide and with or without 0.1% bovine gamma globulin (BGG). This was treated as the assay buffer (with 0.1% BGG) and also as the negative control. For the positive control, 120 μM unlabeled H3K4 10-mer peptide was added to the assay buffer. The assay buffer was dispensed using the EL406 Biotek liquid dispenser onto black, round-bottom low volumes 384-microwell plates (Corning 4514) to a final volume of 10 μL per well. DMSO (10 nL or 50 nL) or screening compounds at 10 nL (ChemBridge Premium Diversity collection at 10 μM final) or 50 nL (ML fragments and NCI libraries at 50 μM final) was added to plates containing the assay buffer using the BioMek liquid handler/dispenser. The final DMSO in the samples was either 0.1% or 0.5%. Fluorescence polarization measurements were performed directly and after 45 minutes of incubation at room temperature using a Perkin Elmer Envision and XCite 2105 multimode microplate reader equipped with a stacker. Excitation light was delivered with a xenon flash lamp at 480/30 nm (BW) and emission was collected after passing through an emission filter (535/25 nm). For fluorescence polarization experiments, two 535/40 nm filters (S, P) and dual dichroic D505/D535 nm mirrors were used.
For FP-based assay optimization, the assay signal dynamic range was evaluated using the negative and positive control buffers with varying amounts of GST-PHD1 (0.5, 1, 1.5, or 2 μM) in the presence or absence of 0.1% BGG. For each condition, buffer was dispensed into 3 columns of a 384-well plate (48 wells each) using the BioMek liquid dispenser and the FP signal was recorded. The Z′ value reports on the assay robustness by reflecting both the dynamic range and the data variation associated with assay measurements.5 The Z′ value is given by the following equation: […]
where σ represents the standard deviation, PC represents the positive control, NC represents the negative control, and μ represents the mean value of the FP signal.
Screen results were analyzed using the UCSF SMDC web application called HiTS […]
(http://smdc.ucsf.edu/hits/). […]
equal to 3 standard deviations of the mean percent inhibition values, where the negative control is set to 0% inhibition and the positive control is set to 100% inhibition. Cheminformatics analysis on the screen hits was done using DataWarrior, an open-source program for data visualization and analysis with chemical intelligence.6 The Tanimoto coefficient was used to gauge the similarity and diversity of screen hits and cluster any compounds with greater than 75% similarity.
Screen hits were repurchased when available. Structurally similar derivatives were purchased when exact compounds were not available for purchase. Compound purity was confirmed by LCMS. All compounds were dissolved in DMSO-d6 to a final concentration of 40 mM unless otherwise specified. All putative screen hits were confirmed in dose-response using the competitive binding fluorescence polarization […]
assay. […]

[2] = target: T2, 15N-labeled PHD1 (KDM5A) (Homo sapiens, UniProt P29375); test: 2D 1H-15N HSQC NMR binding assay; details: for perturbation of some residues: most perturbed residues
T2 construct: PHD1(S287-E344) construct; GST (N, cleaved yes); made in house; host or cells: E. coli BL21 (DE3), M9 minimal media with 15N ammonium chloride
T2 sequence (P29375 287-344): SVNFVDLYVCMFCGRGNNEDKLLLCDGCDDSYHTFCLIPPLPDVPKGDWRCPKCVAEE
Description: The binding of the ChemBridge screen hits to PHD1 was further evaluated using 2D ^1H–^15N HSQC NMR spectroscopy. This direct binding method allowed us to monitor binding by observing any ligand-induced changes in the previously assigned ^1H–^15N PHD1 amino acid resonances.[12] The HSQC spectra of 50 μM ^15N-labeled PHD1 with DMSO were overlaid with the spectra of the ^15N-labeled PHD1 incubated with 1 mM compound. […] Compound 715 958 was insoluble in the NMR buffer at this concentration and was not evaluated. […]
Nuclear magnetic resonance (NMR) binding assays
A PHD1(S287-E344) construct was used in NMR studies, as previously described.4 Briefly, the GST-PHD1 fusion construct was expressed in M9 minimal media containing 15N ammonium chloride. The labeled GST-PHD1 was purified and the GST tag was cleaved as described in the Expression of GST-PHD1(S287-E344) and GST tag removal section. For 2D 1H, 15N Fast HSQC (FHSQC) binding experiments, 50 μM 15N-labeled PHD1 was used and spectra were measured after the addition of DMSO-d6 or compound at 1 mM in DMSO-d6 for single concentration experiments. The NMR samples were prepared in 50 mM HEPES pH 7.5, 150 mM KCl buffer with 5 mM BME, 100 μM ZnCl2, and 10% D2O at a final concentration of 2.4% DMSO-d6. The HSQC spectra were collected on a 600 MHz Bruker Avance NEO spectrometer equipped with an actively shielded Z-gradient […] TCI cryoprobe using programs from the pulse program library (TopSpin 4.0.6). FHSQC acquisition parameters were: NS = 8, acquisition time = 0.106 s 1H, 0.060 s 15N. All experiments were carried out at 298 K (calibrated with 4% v/v MeOH […]
For 2D 1H, 15N FHSQC titration experiments, 50 μM 15N-labeled PHD1 was incubated with 0, 0.5, 1, 2, or 4 mM B2 sample with a final concentration of 2.9% DMSO-d6 for all samples. The NMR samples were prepared in 50 mM HEPES pH 7.5, 150 mM KCl buffer with 5 mM BME, 100 μM ZnCl2, and 5% D2O. The 2D 15N FHSQC spectra for the titration series were recorded at 298 K on a Bruker 800 MHz AVANCE-I spectrometer equipped with an actively shielded Z-gradient TCI cryoprobe using programs from the pulse program library (TopSpin 4.0.8). FHSQC acquisition parameters were: NS = 8, acquisition time = 0.082 s 1H, 0.045s 15N. The analysis of the chemical shift perturbation of the amide cross-peaks during the titration with the ligand was performed using CCPNMR Analysis software and use PHD1 with 2.9% DMSO-d6 as the reference.7 Apo PHD1 backbone assignments were imported from the BMRB (entry 30808).4 The chemical shift perturbations for all the NMR experiments were calculated in CCPNMR v3.2, which uses the following equation:
∆ chemical shift = ∆H2 + 0.15(∆N)2

[3] = target: GST-labeled PHD1(S283-E344) construct of KDM5A (two Zn(II) ions bound (PHD zinc finger)); test: fluorescence polarisation; competitive displacement of 5-FAM H3 10-mer (10 nM) from GST-PHD1 (2 μM) by unlabeled H3 10-mer peptide; triplicate measurements; details: both partners purified
[4] = target: GST-labeled PHD1(S283-E344) construct of KDM5A; test: fluorescence polarisation; direct binding of C-terminal 5-FAM H3 10-mer peptide to GST-PHD1; triplicate measurements

Question: With `C[C@H](N)C(=O)N[C@@H](CCCNC(=N)N)C(=O)N[C@H](C(=O)N[C@@H](CCCCN)C(=O)N[C@@H](CCC(N)=O)C(=O)N[C@H](C(=O)N[C@@H](C)C(=O)N[C@@H](CCCNC(=N)N)C(=O)N[C@@H](CCCCN)C(=O)N[C@@H](CO)C(=O)O)[C@@H](C)O)[C@@H](C)O` [unlabeled H3 peptide, reference compound] as the molecule, how does the Ki ([1]; displacement of 5-FAM H3 10-mer (10 nM) from GST-PHD1 (2 μM)) read?
Answer: 0.95 ± 0.14 µM

Question: `CC(=O)c1c(C)oc2ccc(NS(=O)(=O)c3ccc(C(=O)O)cc3)cc12` [Compound B1, 4-(N-(3-acetyl-2-methylbenzofuran-5-yl)sulfamoyl)benzoic acid] was tested. Which “%I at 1 mM” value [1] did it give?
Answer: 38%

Question: What about the inhibition at 1000 µM [1] of the same molecule?
Answer: 38%

Question: Which inhibition at 1000 µM [1] does the source give for `CC(=O)c1c(C)oc2ccc(NS(=O)(=O)c3cccc(Cl)c3)cc12` [Compound B7, N-(3-acetyl-2-methylbenzofuran-5-yl)-3-chlorobenzenesulfonamide] here?
Answer: 13%

Question: `CCOC(=O)c1ccc(S(=O)(=O)Nc2ccc3oc(C)c(C(C)=O)c3c2)cc1` [Compound B5, ethyl 4-(N-(3-acetyl-2-methylbenzofuran-5-yl)sulfamoyl)benzoate] was tested. Which inhibition at 1000 µM [1] did it give?
Answer: 11%

Question: For `Cc1oc2ccc(NS(=O)(=O)c3ccccc3)cc2c1C(=O)OCc1ccccc1` [Compound 8018-7366], which inhibition at 1000 µM [1] is on record?
Answer: 6%

Question: What about the “potency relative to parent hit” value ([1]; FP concentration-response, compared with 516 969 or 990 099) of the same molecule?
Answer: drastically reduced potency

Question: With `Cc1c(CCC(=O)N2CCCC2C(=O)O)c(=O)oc2c(C)c(O)ccc12` (stereo not shown) [991 830] as the molecule, how does the “average shifts (CSP on PHD1)” value ([2]; 50 μM 15N PHD1, 1 mM compound) read?
Answer: ≤ 0.002 ppm

Question: With `CCc1nnc(NS(=O)(=O)c2ccc(NC(=O)c3ccc(OC)c(OC)c3)cc2)s1` [988 385] as the molecule, how does the “average shifts (CSP on PHD1)” value ([2]; 50 μM 15N PHD1, 1 mM compound) read?
Answer: ≤ 0.002 ppm

Question: And the “Δδ of residue N304” value ([2]; 50 μM 15N PHD1, 1 mM compound)?
Answer: > 0.01 ppm

Question: `CC(=O)c1c(C)oc2ccc(NS(=O)(=O)c3cccc(C(N)=O)c3)cc12` [Compound B4, 3-(N-(3-acetyl-2-methylbenzofuran-5-yl)sulfamoyl)benzamide] was tested. Which inhibition at 1000 µM [1] did it give?
Answer: 9%

Question: For `CC(=O)c1c(C)oc2ccc(N(C(C)=O)S(=O)(=O)c3ccc(C(=O)O)cc3)cc12` [7 917 645], which inhibition at 1000 µM [1] is on record?
Answer: 30%

Question: How did the “chemical shift perturbations on PHD1 in titration” value ([2]; B2 at 0.5, 1, 2 and 4 mM with 50 μM 15N PHD1) turn out when `CC(=O)c1c(C)oc2ccc(NS(=O)(=O)c3cccc(C(=O)O)c3)cc12` [Compound B2, 3-(N-(3-acetyl-2-methylbenzofuran-5-yl)sulfamoyl)benzoic acid] was run?
Answer: chemical shift perturbations are small

Question: What about the “%I at 1 mM” value [1] of the same molecule?
Answer: 45%

Question: And the inhibition at 1000 µM [1]?
Answer: 45%

Question: And the IC50 ([1]; FP concentration-response)?
Answer: ~1300 µM

Question: `COC(=O)c1cccc(S(=O)(=O)Nc2ccc3oc(C)c(C(C)=O)c3c2)c1` [Compound B6, methyl 3-(N-(3-acetyl-2-methylbenzofuran-5-yl)sulfamoyl)benzoate] was tested. Which inhibition at 1000 µM [1] did it give?
Answer: 4%

Question: With `CSc1nnc2c(n1)OC(c1ccncc1)Nc1ccccc1-2` (stereo not shown) [516 969] as the molecule, how does the “average shifts (CSP on PHD1)” value ([2]; 50 μM 15N PHD1, 1 mM compound) read?
Answer: 0.0025–0.0033 ppm

Question: What about the “Δδ of residue Cys322” value ([2]; 50 μM 15N PHD1, 1 mM compound) of the same molecule?
Answer: 0.009 ppm

Question: And the “perturbation of some residues” value ([2]; 50 μM 15N PHD1, 1 mM compound)?
Answer: greater than 0.008 ppm

Question: Which results are given for `Cc1oc2ccc(NS(=O)(=O)c3ccc(C(=O)O)cc3)cc2c1C(=O)OCc1ccccc1` [990 099]?
Answer: average shifts (CSP on PHD1) ([2]; 50 μM 15N PHD1, 1 mM compound): 0.0025–0.0033 ppm; perturbation of some residues ([2]; 50 μM 15N PHD1, 1 mM compound): greater than 0.008 ppm; inhibition at 1000 µM [1]: 45%; IC50 ([1]; FP concentration-response): > 1500 µM

Question: For `O=C(C1CC1)N1CCc2sc(S(=O)(=O)Nc3cccc(Cl)c3F)cc2C1` [990 856], which “average shifts (CSP on PHD1)” value ([2]; 50 μM 15N PHD1, 1 mM compound) is on record?
Answer: ≤ 0.002 ppm

Question: For `CC(=O)c1c(C)oc2ccc(NS(=O)(=O)c3ccc(C(N)=O)cc3)cc12` [Compound B3, 4-(N-(3-acetyl-2-methylbenzofuran-5-yl)sulfamoyl)benzamide], which inhibition at 1000 µM [1] is on record?
Answer: 12%

B1: unlabeled H3 10-mer peptide (peptide, UniProt P68431 2-11, looked up)
peptide: ARTKQTARKS
notes: histone H3 N-terminal tail 10-mer with unmodified K4 (H3K4me0); also called unlabeled H3K4me0 10-mer; H3K4me0 10-mer peptide
Question: B1 was tested. Which Ki [3] did it give?
Answer: 0.95 ± 0.14 µM

Question: Which Kd [4] does the source give for ARTKQTARKS-{5‑FAM} [C-terminal 5-FAM H3 10-mer peptide, P68431 2-11] here?
Answer: 0.95 µM
